Source: PubChem BioAssay (NCI)
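Tested at 5 concentrations; 48 h exposure; 96-well plates; endpoints linearly interpolated, else capped at highest concentration. Here, GI50 denotes the concentration required for 50% inhibition of growth. TGI: total growth inhibition.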

Tests used:
Test in all cases: NCI anticancer screen, dose series, 48 h
TK-10 renal = test system: TK-10 renal
OVCAR-4 ovarian = test system: OVCAR-4 ovarian
K-562 leukemia = test system: K-562 leukemia
NCI/ADR-RES ovarian = test system: NCI/ADR-RES ovarian
SK-OV-3 ovarian = test system: SK-OV-3 ovarian
MDA-MB-468 breast = test system: MDA-MB-468 breast
UACC-62 melanoma = test system: UACC-62 melanoma
RXF 393 renal = test system: RXF 393 renal
HCT-116 colon = test system: HCT-116 colon
SK-MEL-2 melanoma = test system: SK-MEL-2 melanoma
NCI-H226 lung = test system: NCI-H226 lung
EKVX NSCLC = test system: EKVX NSCLC
U251 CNS = test system: U251 CNS
HCC-2998 colon = test system: HCC-2998 colon
SF-268 CNS = test system: SF-268 CNS
LOX IMVI melanoma = test system: LOX IMVI melanoma
NCI-H522 lung = test system: NCI-H522 lung
MALME-3M melanoma = test system: MALME-3M melanoma
MCF7 breast = test system: MCF7 breast
UO-31 renal = test system: UO-31 renal
786-0 renal = test system: 786-0 renal
M14 melanoma = test system: M14 melanoma
SF-539 CNS = test system: SF-539 CNS
DU-145 prostate = test system: DU-145 prostate
UACC-257 melanoma = test system: UACC-257 melanoma
COLO 205 colon = test system: COLO 205 colon
HS 578T breast = test system: HS 578T breast
OVCAR-3 ovarian = test system: OVCAR-3 ovarian
A549 NSCLC = test system: A549 NSCLC
MDA-MB-231 breast = test system: MDA-MB-231 breast
OVCAR-5 ovarian = test system: OVCAR-5 ovarian
SF-295 CNS = test system: SF-295 CNS
HL-60(TB) leukemia = test system: HL-60(TB) leukemia
KM12 colon = test system: KM12 colon
OVCAR-8 ovarian = test system: OVCAR-8 ovarian
HCT-15 colon = test system: HCT-15 colon
NCI-H460 lung = test system: NCI-H460 lung
MDA-MB-435 = test system: MDA-MB-435
IGROV1 ovarian = test system: IGROV1 ovarian
CAKI-1 renal = test system: CAKI-1 renal
BT-549 breast = test system: BT-549 breast
SN12C renal = test system: SN12C renal
SK-MEL-5 melanoma = test system: SK-MEL-5 melanoma
ACHN renal = test system: ACHN renal
SW-620 colon = test system: SW-620 colon
SR leukemia = test system: SR leukemia
PC-3 prostate = test system: PC-3 prostate
HOP-62 NSCLC = test system: HOP-62 NSCLC
SNB-19 CNS = test system: SNB-19 CNS
HT29 colon = test system: HT29 colon
CCRF-CEM leukemia = test system: CCRF-CEM leukemia
NCI-H23 lung = test system: NCI-H23 lung
RPMI-8226 leukemia = test system: RPMI-8226 leukemia
A498 renal = test system: A498 renal
SK-MEL-28 melanoma = test system: SK-MEL-28 melanoma
MOLT-4 leukemia = test system: MOLT-4 leukemia

COc1cc(OC)cc(-c2cc3ccc(N(C)C)cc3c(=O)[nH]2)c1 was tested, and the GI50 (TK-10 renal) was > 100000 nM, the TGI (TK-10 renal) was > 100000 nM and the GI50 (OVCAR-4 ovarian) was 1670 nM. For the same compound, the TGI (OVCAR-4 ovarian) was > 100000 nM, the GI50 (K-562 leukemia) was < 10 nM and the TGI (K-562 leukemia) was > 100000 nM. The GI50 (NCI/ADR-RES ovarian) was < 10 nM, the TGI (NCI/ADR-RES ovarian) was 33.6 nM and the GI50 (SK-OV-3 ovarian) was 33.5 nM. For the same compound, the TGI (SK-OV-3 ovarian) was > 100000 nM, the GI50 (MDA-MB-468 breast) was 21.7 nM and the TGI (MDA-MB-468 breast) was 69 nM. For the same compound, the GI50 (UACC-62 melanoma) was < 10 nM, the TGI (UACC-62 melanoma) was > 100000 nM and the GI50 (RXF 393 renal) was 15.5 nM. For the same compound, the TGI (RXF 393 renal) was > 100000 nM, the GI50 (HCT-116 colon) was < 13.5 nM and the TGI (HCT-116 colon) was > 100000 nM. The GI50 (SK-MEL-2 melanoma) was 25.6 nM, the TGI (SK-MEL-2 melanoma) was > 100000 nM and the GI50 (NCI-H226 lung) was 219 nM. The TGI (NCI-H226 lung) was > 100000 nM, the GI50 (EKVX NSCLC) was 58.8 nM and the TGI (EKVX NSCLC) was > 100000 nM. For the same compound, the GI50 (U251 CNS) was 15.1 nM, the TGI (U251 CNS) was > 47000 nM and the GI50 (HCC-2998 colon) was 25.7 nM. For the same compound, the TGI (HCC-2998 colon) was > 100000 nM, the GI50 (SF-268 CNS) was 354 nM and the TGI (SF-268 CNS) was > 100000 nM. The GI50 (LOX IMVI melanoma) was 19 nM, the TGI (LOX IMVI melanoma) was > 100000 nM and the GI50 (NCI-H522 lung) was < 10 nM. For the same compound, the TGI (NCI-H522 lung) was 47.3 nM, the GI50 (MALME-3M melanoma) was 24 nM and the TGI (MALME-3M melanoma) was > 100000 nM. The GI50 (MCF7 breast) was 33.1 nM, the TGI (MCF7 breast) was > 100000 nM and the GI50 (UO-31 renal) was 52.3 nM. For the same compound, the TGI (UO-31 renal) was > 100000 nM, the GI50 (786-0 renal) was 45.1 nM and the TGI (786-0 renal) was > 63300 nM. The GI50 (M14 melanoma) was < 10.6 nM, the TGI (M14 melanoma) was > 48200 nM and the GI50 (SF-539 CNS) was 11.7 nM. The TGI (SF-539 CNS) was 42.6 nM, the GI50 (DU-145 prostate) was 45.6 nM and the TGI (DU-145 prostate) was > 100000 nM. The GI50 (UACC-257 melanoma) was > 100000 nM, the TGI (UACC-257 melanoma) was > 100000 nM and the GI50 (COLO 205 colon) was 22.3 nM. The TGI (COLO 205 colon) was 58.3 nM, the GI50 (HS 578T breast) was 25.2 nM and the TGI (HS 578T breast) was > 100000 nM. It also gave a GI50 (OVCAR-3 ovarian) of 19.1 nM, a TGI (OVCAR-3 ovarian) of 37800 nM and a GI50 (A549 NSCLC) of 39 nM. The TGI (A549 NSCLC) was > 100000 nM, the GI50 (MDA-MB-231 breast) was 30.3 nM and the TGI (MDA-MB-231 breast) was 3600 nM. The GI50 (OVCAR-5 ovarian) was 35.7 nM, the TGI (OVCAR-5 ovarian) was > 100000 nM and the GI50 (SF-295 CNS) was < 10.6 nM. For the same compound, the GI50 (HL-60(TB) leukemia) was < 11 nM, the TGI (HL-60(TB) leukemia) was 43.4 nM and the GI50 (KM12 colon) was 31 nM. For the same compound, the TGI (KM12 colon) was > 100000 nM, the GI50 (OVCAR-8 ovarian) was 29.8 nM and the TGI (OVCAR-8 ovarian) was 187 nM. The GI50 (HCT-15 colon) was < 11.6 nM, the GI50 (NCI-H460 lung) was 34.1 nM and the TGI (NCI-H460 lung) was > 100000 nM. For the same compound, the GI50 (MDA-MB-435) was < 10 nM, the TGI (MDA-MB-435) was 14.9 nM and the GI50 (IGROV1 ovarian) was 44.6 nM. The TGI (IGROV1 ovarian) was > 100000 nM, the GI50 (CAKI-1 renal) was 14.5 nM and the TGI (CAKI-1 renal) was > 100000 nM. The GI50 (BT-549 breast) was 38 nM, the TGI (BT-549 breast) was > 100000 nM and the GI50 (SN12C renal) was 37.2 nM. For the same compound, the TGI (SN12C renal) was > 100000 nM, the GI50 (SK-MEL-5 melanoma) was 17.1 nM and the TGI (SK-MEL-5 melanoma) was 145 nM. The GI50 (ACHN renal) was 52.2 nM, the TGI (ACHN renal) was > 100000 nM and the GI50 (SW-620 colon) was < 10.6 nM. The TGI (SW-620 colon) was > 100000 nM, the GI50 (SR leukemia) was < 10 nM and the TGI (SR leukemia) was > 100000 nM. The GI50 (PC-3 prostate) was 40 nM, the TGI (PC-3 prostate) was > 100000 nM and the GI50 (HOP-62 NSCLC) was 38 nM. For the same compound, the TGI (HOP-62 NSCLC) was > 100000 nM, the GI50 (SNB-19 CNS) was 54.2 nM and the TGI (SNB-19 CNS) was > 100000 nM. It also gave a GI50 (HT29 colon) of 16.4 nM, a TGI (HT29 colon) of 52.9 nM and a GI50 (CCRF-CEM leukemia) of 39.6 nM. The TGI (CCRF-CEM leukemia) was > 100000 nM, the GI50 (NCI-H23 lung) was 42.6 nM and the TGI (NCI-H23 lung) was > 100000 nM. The GI50 (RPMI-8226 leukemia) was 43.6 nM, the TGI (RPMI-8226 leukemia) was > 100000 nM and the GI50 (A498 renal) was > 100000 nM. The TGI (A498 renal) was > 100000 nM, the GI50 (SK-MEL-28 melanoma) was 42.2 nM and the TGI (SK-MEL-28 melanoma) was > 100000 nM. The GI50 (MOLT-4 leukemia) was 25.4 nM and the TGI (MOLT-4 leukemia) was > 100000 nM.
